≈ marks a conversion by molar mass, not a printed value. Where two headings read alike, the source gives them in different places.
Experiments:
[1] = target: T1, H. pylori urease (HPU) (Helicobacter pylori, UniProt P69996); assay: tandem-well NH3 assay, Nessler's reagent, crude extract; format: biochemical
[2] = target: T2, jack bean urease (JBU) (Canavalia ensiformis, UniProt P07374); assay: tandem-well NH3 assay, salicylic acid-hypochlorite; format: biochemical
[3] = target: T3, human CBS (hCBS) (Homo sapiens, UniProt P35520); assay: tandem-well H2S assay; format: biochemical
T3 sequence (P35520 1-551): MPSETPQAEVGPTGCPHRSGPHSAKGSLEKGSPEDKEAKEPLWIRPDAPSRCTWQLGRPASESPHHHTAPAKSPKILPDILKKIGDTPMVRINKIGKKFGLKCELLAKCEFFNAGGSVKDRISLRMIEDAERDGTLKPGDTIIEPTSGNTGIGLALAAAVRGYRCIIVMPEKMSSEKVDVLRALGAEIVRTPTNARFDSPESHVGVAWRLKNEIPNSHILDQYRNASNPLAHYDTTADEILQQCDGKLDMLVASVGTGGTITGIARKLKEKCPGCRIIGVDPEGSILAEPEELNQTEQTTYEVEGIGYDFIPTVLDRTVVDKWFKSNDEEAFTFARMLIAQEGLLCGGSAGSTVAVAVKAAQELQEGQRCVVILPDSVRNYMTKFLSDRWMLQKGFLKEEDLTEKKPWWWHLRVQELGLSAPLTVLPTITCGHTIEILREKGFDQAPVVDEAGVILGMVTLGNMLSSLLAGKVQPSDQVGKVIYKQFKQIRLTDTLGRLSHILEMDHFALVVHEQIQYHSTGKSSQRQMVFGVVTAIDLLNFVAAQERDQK

[4] = target: human CSE (hCSE) (Homo sapiens, UniProt P32929); assay: tandem-well H2S assay; format: biochemical
Sequence of human CSE (hCSE) (P32929 whole entry): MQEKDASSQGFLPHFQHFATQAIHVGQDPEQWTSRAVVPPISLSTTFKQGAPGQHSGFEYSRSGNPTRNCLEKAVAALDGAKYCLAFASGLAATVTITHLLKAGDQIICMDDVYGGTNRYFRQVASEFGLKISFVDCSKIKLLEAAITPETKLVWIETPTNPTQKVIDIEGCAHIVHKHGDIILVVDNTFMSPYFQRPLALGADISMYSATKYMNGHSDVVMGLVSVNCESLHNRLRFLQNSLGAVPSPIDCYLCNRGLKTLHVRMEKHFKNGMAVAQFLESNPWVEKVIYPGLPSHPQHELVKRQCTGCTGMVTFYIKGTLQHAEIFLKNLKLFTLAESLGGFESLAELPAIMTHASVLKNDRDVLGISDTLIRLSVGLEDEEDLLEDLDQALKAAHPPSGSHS

[5] = system: O. anthropi urease (OAU); format: biochemical, Brucella anthropi
[6] = system: H. pylori; assay: microbe, parasite or virus in culture; details: Helicobacter pylori, 72 h, read-out: H. pylori (MIC) µM
[7] = target: T1, H. pylori urease (HPU); assay: cell-based
[8] = system: H. pylori; assay: microbe, parasite or virus in culture; details: Helicobacter pylori, 72 h, read-out: H. pylori (MIC) µg/ml
[9] = target: T2, jack bean urease (JBU); assay: enzyme kinetics, tandem-well NH3 assay; format: biochemical
[10] = target: T2, jack bean urease (JBU); assay: SPR, Biacore T200, JBU immobilised on CM5 chip; format: binding
[11] = target: T2, jack bean urease (JBU); assay: enzyme kinetics, tandem-well NH3 assay; format: biochemical; details: urea 12.5-200 mM; noncompetitive, covalent, allosteric (Cys313)
[12] = 25 mM urea, 100 μM NiCl2, 50 mM phosphate pH 7.4, 37 °C, 30 min preincubation

T2 sequence (P07374 whole entry, looked up): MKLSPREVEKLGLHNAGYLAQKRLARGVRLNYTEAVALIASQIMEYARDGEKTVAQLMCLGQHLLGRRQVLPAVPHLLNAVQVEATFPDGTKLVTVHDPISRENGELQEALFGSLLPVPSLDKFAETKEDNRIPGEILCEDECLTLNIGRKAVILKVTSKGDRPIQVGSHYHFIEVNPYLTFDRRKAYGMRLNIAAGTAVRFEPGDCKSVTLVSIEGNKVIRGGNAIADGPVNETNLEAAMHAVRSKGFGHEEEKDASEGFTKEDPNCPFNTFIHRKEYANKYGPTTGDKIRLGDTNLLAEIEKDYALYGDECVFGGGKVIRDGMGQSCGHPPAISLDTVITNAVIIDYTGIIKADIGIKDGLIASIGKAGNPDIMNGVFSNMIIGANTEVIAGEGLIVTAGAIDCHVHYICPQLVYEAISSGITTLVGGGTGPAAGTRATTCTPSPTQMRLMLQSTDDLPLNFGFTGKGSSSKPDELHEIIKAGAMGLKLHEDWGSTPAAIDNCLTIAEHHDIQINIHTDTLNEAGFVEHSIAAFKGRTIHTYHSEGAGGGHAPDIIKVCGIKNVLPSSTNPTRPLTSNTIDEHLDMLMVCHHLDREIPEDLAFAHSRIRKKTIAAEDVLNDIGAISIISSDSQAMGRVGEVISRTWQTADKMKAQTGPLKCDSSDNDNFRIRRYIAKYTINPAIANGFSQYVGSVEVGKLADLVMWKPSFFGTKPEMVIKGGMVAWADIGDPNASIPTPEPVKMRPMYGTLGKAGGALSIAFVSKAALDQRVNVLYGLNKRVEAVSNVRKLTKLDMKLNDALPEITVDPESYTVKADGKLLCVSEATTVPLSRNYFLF
T1 sequence (P69996 whole entry): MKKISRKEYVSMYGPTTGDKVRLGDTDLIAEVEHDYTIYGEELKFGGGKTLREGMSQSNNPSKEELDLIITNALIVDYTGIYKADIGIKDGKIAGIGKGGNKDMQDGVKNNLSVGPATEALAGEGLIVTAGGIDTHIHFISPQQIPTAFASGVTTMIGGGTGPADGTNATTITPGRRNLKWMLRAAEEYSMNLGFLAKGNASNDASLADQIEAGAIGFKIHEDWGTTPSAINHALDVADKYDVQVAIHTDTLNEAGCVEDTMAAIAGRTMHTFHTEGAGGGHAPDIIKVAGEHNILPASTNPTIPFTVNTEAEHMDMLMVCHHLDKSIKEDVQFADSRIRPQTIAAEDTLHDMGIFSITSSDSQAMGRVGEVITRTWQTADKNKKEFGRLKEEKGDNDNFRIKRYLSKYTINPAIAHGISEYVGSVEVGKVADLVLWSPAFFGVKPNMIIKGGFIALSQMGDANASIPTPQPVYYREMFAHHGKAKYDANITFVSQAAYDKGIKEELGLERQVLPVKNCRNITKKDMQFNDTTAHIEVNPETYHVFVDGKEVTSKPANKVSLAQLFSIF
T1 sequence (P14916 whole entry partner): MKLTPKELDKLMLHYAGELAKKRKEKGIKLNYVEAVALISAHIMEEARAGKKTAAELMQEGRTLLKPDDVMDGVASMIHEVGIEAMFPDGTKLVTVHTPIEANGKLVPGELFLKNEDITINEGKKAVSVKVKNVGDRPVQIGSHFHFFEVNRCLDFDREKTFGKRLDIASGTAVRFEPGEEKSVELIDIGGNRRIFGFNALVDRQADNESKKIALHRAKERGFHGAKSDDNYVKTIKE

Compound | IC50 [1] [µM] | IC50 [2] [µM] | IC50 [5] [µM] | MIC [6] [µM] | MIC [8] [µg/mL] | also measured
O=C(CCCCCCNC(=O)c1cnc(N(c2ccccc2)c2ccccc2)nc1)NO [ricolinostat] | > 20 | > 20 |  |  |  | 
CCN(CC)C(=S)SSC(=S)N(CC)CC [disulfiram] | 8.9 ± 1.5 | 38.9 ± 2.7 | 35 ± 0.1 | 12.5 (≈ 3.71 µg/mL) | 4 (≈ 13.5 µM) | IC50 [3]: > 200 µM; IC50 [4]: > 200 µM; IC50 [7]: 36.3 ± 1 µM
O=C(CCCCCCC(=O)Nc1ccccc1)NO [vorinostat] | 14 ± 3.9 | 4.1 ± 1.9 |  |  |  | 
O=c1[nH][se]c2ccccc12 [compound 4] |  |  |  | 12.5 (≈ 2.48 µg/mL) | 2 (≈ 10.1 µM) | IC50 [7]: 18.5 ± 1.2 µM
CSn1[se]c2ccccc2c1=O [compound 6, 2-Methylthio-benzisoseleno-3-one] |  |  | 1.7 ± 0.1 |  |  | IC50 [1, 12]: 1.3 ± 0.4 µM; IC50 [2, 12]: 0.3 ± 0.04 µM
Cc1ncc([N+](=O)[O-])n1CCO [Metronidazole] |  |  |  | > 3000 | > 512 | 
NO [hydroxylamine] | > 20 | > 20 |  |  |  | 
c1ccc(C[Se][Se]Cc2ccccc2)cc1 [dibenzyl diselenide] |  |  |  | > 200 | > 64 | 
COc1ccc2c(=O)n(-c3ccccc3)[se]c2c1 [compound 1] |  |  |  | 6.25 (≈ 1.9 µg/mL) | 2 (≈ 6.57 µM) | 
CN(C)Cc1c(C(=O)NCCOc2ccc(C(=O)NO)cc2)oc2ccccc12 [abexinostat] | 1.3 ± 0.2 | 1.4 ± 0.3 |  |  |  | 
CNC(=O)[C@H](Cc1c[nH]c2ccccc12)NC(=O)[C@@H](CC(=O)NO)CC(C)C [ilomastat] | > 20 | > 20 |  |  |  | 
O=c1[nH][se]c2ccccc12 [compound 4, Benzisoselenol-3-one] | 1.1 ± 0.08 | 0.8 ± 0.008 | 2.2 ± 0.1 |  |  | 
Cc1[nH]c2ccccc2c1CCNCc1ccc(/C=C/C(=O)NO)cc1 [panobinostat] | 0.1 ± 0.01 | 0.2 ± 0.006 | 0.07 ± 0.006 |  |  | IC50 [3]: > 200 µM; Ki [9]: 0.02 ± 0.01 µM; Kd [10]: 8.9 ± 0.4 µM; IC50 [4]: > 200 µM
CCS(=O)(=O)CCn1c([N+](=O)[O-])cnc1C [Tinidazole] |  |  |  | > 2000 | > 512 | 
CCCn1[se]c2ccccc2c1=O [compound 5, 2-Propyl-benzisoselenol-3-one] | > 10 | 1.4 ± 0.03 | 5.3 ± 0.9 |  |  | 
O=C(/C=C/c1cccc(S(=O)(=O)Nc2ccccc2)c1)NO [belinostat] | 3.2 ± 0.2 | 4.7 ± 0.5 |  |  |  | 
COc1ccc2c(=O)n(-c3ccccc3)[se]c2c1 [compound 1, 2-Phenyl-6-methoxybenzoisoselen-3-one] |  |  | 7.5 ± 0.6 |  |  | IC50 [1, 12]: 2 ± 0.9 µM; IC50 [2, 12]: 0.3 ± 0.007 µM
O=c1c2ccccc2[se]n1-c1ccccc1 [ebselen] | 2.8 ± 0.5 | 0.4 ± 0.07 | 3 ± 1 | 12.5 (≈ 3.43 µg/mL) | 4 (≈ 14.6 µM) | IC50 [3]: > 200 µM; Kd [10]: 0.089 ± 0.005 µM; αKi [11]: 0.8 ± 0.2 µM; IC50 [4]: 44.3 ± 1.3 µM; IC50 [7]: 5.7 ± 1.3 µM
O=C1c2ccccc2[Se](=O)N1c1ccccc1 (stereo not shown) [Ebselen oxide] | 1.5 ± 0.2 | 0.4 ± 0.005 | 3.3 ± 0.1 | 12.5 (≈ 3.63 µg/mL) | 4 (≈ 13.8 µM) | IC50 [7]: 23.2 ± 1.1 µM
CC(=O)NO [acetohydroxamic acid] | 25.9 ± 1.2 | 162 ± 13.4 | 2.8 ± 0.9 |  | > 16 | IC50 [3]: > 200 µM; Ki [9]: 2.1 ± 0.8 µM; IC50 [4]: > 200 µM

Source: doi:10.1101/2021.01.05.425432v2 (biorxiv, 2021)
